In brackets after ≈: the same amount, converted by molar mass.
Legend:
[1] = system: Mycobacterium tuberculosis; test: Antitubercular activity against Mycobacterium tuberculosis H37Rv ATCC 27294 after 5 days under aerobic condition; type: functional, organism-based; conditions: for IC50 / IC90 / MIC: H37Rv ATCC 27294, 120 h
[2] = system: Mycobacterium tuberculosis; test: Antitubercular activity against Mycobacterium tuberculosis H37Rv ATCC 27294 after 10 days under low oxygen condition followed by incubation under aerobic condition for 28 hrs by LORA; type: functional, organism-based
[3] = system: Mycobacterium tuberculosis; test: Bactericidal activity against Mycobacterium tuberculosis H37Rv ATCC 27294 assessed as concentration required for 2 log kill after 21 days under aerobic condition by colony forming assay; type: functional; conditions: for MBC: H37Rv ATCC 27294, 504 h
THP-1 = test: Cytotoxicity against human THP1 cells after 3 days by luminescence assay; type: cell-based; conditions: THP-1, 72 h
[4] = system: Mycobacterium tuberculosis; test: Antitubercular activity against luxABCDE expressing Mycobacterium tuberculosis H37Rv infected in human THP1 cells measured after 3 days by luminescence assay; type: functional, organism-based; conditions: THP-1, 72 h
[5] = Protein binding in human plasma at 5 uM after 4 hrs by LC-MS/MS analysis
[6] = Half life in human liver S9 microsomes at 1 uM in presence of NADPH by LC-MS/MS analysis
[7] = Half life in human liver S9 microsomes at 1 uM in absence of NADPH by LC-MS/MS analysis
HepG2 = test: Cytotoxicity against human HepG2 cells at 100 uM after 3 days by CellTiter-Glo luminescent cell viability assay; type: cell-based; conditions: HepG2, 72 h
in vitro [8] = conditions: human, Caco-2
Description: Apparent permeability of the compound across apical side to basolateral side in human Caco2 cells monolayer at 10 uM after 2 hrs by LC-MS/MS analysis

in vitro [9] = conditions: human, Caco-2; remark: listed apart in the source
Description: Apparent permeability of the compound across basolateral side to apical side in human Caco2 cells monolayer at 10 uM after 2 hrs by LC-MS/MS analysis

in vitro [10] = conditions: human, THP1 cells
Description: Selectivity index, ratio of IC50 for human THP1 cells to IC50 for Mycobacterium tuberculosis H37Rv under aerobic condition

[11] = system: Mycobacterium tuberculosis; test: Potency index, ratio of compound MIC to metronidazole MIC for antitubercular activity against Mycobacterium tuberculosis H37Rv ATCC 27294 under low oxygen condition; type: functional
Vero = test: Cytotoxicity against African green monkey Vero cells after 2 days by CellTiter-Glo luminescent cell viability assay; type: ADME, cell-based; conditions: Chlorocebus sabaeus, 48 h
[12] = system: Mycobacterium tuberculosis; test: Antitubercular activity against luxABCDE expressing Mycobacterium tuberculosis H37Rv infected in mouse J774 macrophages assessed as log reduction in bacterial colonies at 20 uM measured after 4 days under aerobic condition by luminescence assay; type: functional
[13] = system: Mycobacterium tuberculosis; test: Antitubercular activity against luxABCDE expressing Mycobacterium tuberculosis H37Rv infected in mouse J774 macrophages assessed as log reduction in bacterial colonies at 200 uM measured after 4 days under aerobic condition by luminescence assay; type: functional
[14] = Solubility of compound in Middlebrook 7H9 broth media at pH 6.4 at 200 uM after 90 mins by UV-VIS spectrophotometric method; type: physicochemical; conditions: buffer, pH 6.4, 1.5 h
L6 = test: Cytotoxicity against rat L6 cells after 2 days by CellTiter-Glo luminescent cell viability assay; type: ADME, cell-based; conditions: L6, 48 h
[15] = Intrinsic clearance in human liver S9 microsomes at 1 uM in presence of NADPH by LC-MS/MS analysis; type: ADME, S9 microsome; conditions: read-out: CLH
[16] = Intrinsic clearance in human liver S9 microsomes at 1 uM in absence of NADPH by LC-MS/MS analysis; type: ADME, S9 microsome; conditions: read-out: CLH

SMILES | IC50 [1] [µM] | IC90 [1] [µM] | MIC [1] [µM] | IC50 [2] [µM] | IC90 [2] [µM] | MIC [2] [µM] | MBC [3] [µM] | IC50 (Vero) [µM] | also measured
O=C(Cn1cnc([N+](=O)[O-])n1)N1CCN(Cc2ccc(Cl)c(Cl)c2)CC1 | 5.9 | 7.7 | 6.6 (≈ 2.63 µg/mL) | 17 | 47 | 140 (≈ 55.9 µg/mL) | 5.6 (≈ 2.24 µg/mL) |  | IC50 (THP-1): > 50 µM; IC50 [4]: 4 µM; IC90 [4]: 6.7 µM; fraction unbound at 4 h, 5 µM [5]: 0.076; half-life at 1 µM [6]: 1.2 h; half-life at 1 µM [7]: 2.9 h; IC50 (HepG2): 77 µM; Papp A→B at 2 h, 10 µM (in vitro [8]): 16.3 ×10⁻⁶ cm/s; Papp B→A at 2 h, 10 µM (in vitro [9]): 14.8 ×10⁻⁶ cm/s; selectivity ratio (in vitro [10]): > 10
CN[C@@H]1C[C@H]2O[C@@](C)([C@@H]1OC)n1c3ccccc3c3c4c(c5c6ccccc6n2c5c31)C(=O)NC4 [STAUROSPORINE] |  |  |  |  |  |  |  |  | IC50 (HepG2): 0.018 µM
CO[C@H]1/C=C/O[C@@]2(C)Oc3c(C)c(O)c4c(O)c(c(/C=N/N5CCN(C)CC5)c(O)c4c3C2=O)NC(=O)/C(C)=C\C=C\[C@H](C)[C@H](O)[C@@H](C)[C@@H](O)[C@@H](C)[C@H](OC(C)=O)[C@@H]1C [RIFAMPIN] | 0.0046 to 0.0061 | 0.0049 to 0.014 | 0.015 to 0.033 (≈ 0.0123 to 0.0272 µg/mL) | 0.00072 to 0.015 | 0.0037 to 0.049 | 0.022 to 0.18 (≈ 0.0181 to 0.148 µg/mL) |  |  | 
O=C(Cn1ccnc1[N+](=O)[O-])Nc1ccc(Oc2ccc(Cl)cc2)cc1 | 81 | > 200 | > 200 | 17 | 24 | 35 (≈ 13 µg/mL) | 100 (≈ 37.3 µg/mL) | 30 | Ratio [11]: 6 - 9; log(activity) [12]: 2.6
N#Cc1ccc(-c2ccc(NC(=O)Cn3cnc([N+](=O)[O-])n3)cc2)cc1 | > 200 | > 200 | > 200 |  |  | 52.1 (≈ 18.1 µg/mL) |  |  | 
O=C(Cn1cnc([N+](=O)[O-])n1)Nc1ccc(Oc2ccccc2)cc1 | 65 | 100 | 105 (≈ 35.6 µg/mL) | 8.9 | 92 | > 200 | 200 (≈ 67.9 µg/mL) | 39 | log(activity) [13]: 2.7
O=C(NCCCn1cnc([N+](=O)[O-])n1)c1cc2ccccc2s1 | 107 | > 200 | > 200 |  |  |  |  |  | solubility [14]: Insoluble
Cc1ccoc1C(=O)NCCCn1cnc([N+](=O)[O-])n1 | 41 | 54 | 54.5 (≈ 15.2 µg/mL) |  |  |  |  |  | solubility [14]: Soluble
O=C(Cn1cnc([N+](=O)[O-])n1)Nc1nc(-c2ccc(Cl)cc2)cs1 | 34.2 | 34.9 | 34.9 (≈ 12.7 µg/mL) |  |  |  |  |  | solubility [14]: Insoluble
CC(O)(Cn1cnc([N+](=O)[O-])n1)c1ccc(-c2ccc(C#N)cc2)cc1 (stereo not given) | 55 | 125 | > 200 | 73 | 176 | > 200 | 100 (≈ 34.9 µg/mL) | 66 | IC50 (L6): 86 µM
O=C(Cn1cnc([N+](=O)[O-])n1)Nc1ccc(Oc2ccc(Cl)cc2)cc1 | 51 | 100 | 94 (≈ 35.1 µg/mL) | 13 | 94 | > 200 | 100 (≈ 37.4 µg/mL) | 19 | log(activity) [13]: 2.6
O=C(Cn1cnc([N+](=O)[O-])n1)N1CCN(C(c2ccccc2)c2ccc(Cl)cc2)CC1 (stereo not given) | 38 | 48 | 50 (≈ 22 µg/mL) | 51 | 57 | 65 (≈ 28.7 µg/mL) | 100 (≈ 44.1 µg/mL) | 21 | IC50 (L6): 32 µM; IC50 [4]: 8 µM; IC90 [4]: 11 µM
COc1ccc2c(c1)[C@]13CCCC[C@@H]1[C@H](C2)N(C)CC3 [DEXTROMETHORPHAN] |  |  |  |  |  |  |  |  | half-life at 1 µM [6]: 1.54 to 1.59 h; microsomal CLint at 1 µM [15]: 24.2 µL/min/mg; microsomal CLint at 1 µM [16]: < 12.8 µL/min/mg
CC(=O)N1CCN(c2ccc(OCC3COC(Cn4ccnc4)(c4ccc(Cl)cc4Cl)O3)cc2)CC1 (stereo not given) [KETOCONAZOLE] |  |  |  |  |  |  |  |  | solubility [14]: Insoluble
O=C(CCn1cnc([N+](=O)[O-])n1)Nc1ccc(Oc2ccccc2)cc1 | 28 to 32 | 39 to 45 | 48 (≈ 17 µg/mL) | 32 | 49 | 81 (≈ 28.6 µg/mL) | 20 (≈ 7.07 µg/mL) |  | Activity ([1]; TDE = time-dependent effect): Tde; Activity ([3]; TDE = time-dependent effect): Tde; IC50 (THP-1): 33 µM; IC50 (L6): 32 µM; IC50 [4]: 5 µM; IC90 [4]: 17 µM
